What was measured:
C57BL/6J mice = assay: Conditioned place preference induced by the drug itself; assay type: in vivo; conditions: for Distance travelled in the drug-paired compartment / Distance travelled in the two compartments (Drug + Vehicle) / Distance travelled in the vehicle-paired compartment / Distance travelled, drug-paired minus vehicle-paired compartment / Time spent in the drug-paired compartment / Time spent in the vehicle-paired compartment / Time spent, drug-paired minus vehicle-paired compartment: vehicle before preference session, day 12, mean
Text: Conditioned place preference (CPP) is a widely used procedure for studying the potential addictive effect of drugs. CPP is based upon the tendency of rodents to approach a stimulus that has previously been paired with an incentive state induced by a drug. A drug that induces a CPP may be suspected to present reinforcing effects that could lead to addiction. Numerous addictive drugs, such as opiate agonists or stimulants induce a CPP and a behavioral sensitization.
The effect of mazindol on place preference was examined in C57BL/6J mice using a method similar to the one used by Schlussman et al. (9).
The second experiment consisted in determining the optimal dose of heroin which induces the most significant CPP. For this purpose, the CPP induced by heroin at 1.25, 2.5 and 5 mg/kg was examined.
Following the habituation session (on day 1), animals (N=72) were pseudo-randomly assigned to two groups, a Control group (N=12) and a Heroin group (N=60), in a way that there was no significant difference between the two groups for the total distance travelled in the apparatus and for the percentage of time spent and the percentage distance travelled in the grey compartment and in the striped compartment.
Animals received the following treatments immediately before drug sessions: • Control group: vehicle • Heroin group: heroin (1.25 mg/kg)
Following the habituation session (on day 1), animals (N=72) were pseudo-randomly assigned to three groups, a Control group (N=12), a Heroin group (N=48) and a Mazindol group (N=12), in a way that there was no significant difference between the three groups for the total distance travelled in the apparatus and for the percentage of time spent and the percentage distance travelled in the grey compartment and in the striped compartment.
Animals received the following treatments before drug sessions: • Control group: vehicle, i.p. immediately before session. • Heroin group: heroin (1.25 mg/kg), i.p. immediately before session. • MAZ 2 group: mazindol (2 mg/kg), i.p. 60 min before session.
Animals received the following treatments before preference session: • Control group: vehicle of mazindol, i.p. 60 min before testing. • Hero group: vehicle of mazindol, i.p. 60 min before testing. • Hero-Mz 1 group: mazindol (1 mg/kg), i.p. 60 min before testing. • Hero-Mz 2 group: mazindol (2 mg/kg), i.p. 60 min before testing. • Hero-A 1 group: D-amphetamine (1 mg/kg), i.p. 30 min before testing. • MAZ 2 group: vehicle of mazindol, i.p. 60 min before testing.

[1] = Heroin intoxication procedure after Jiang et al., mortality; assay type: in vivo; conditions: two subcutaneous injections/day of heroin at increasing doses (3 to 30 mg/kg)
Procedure: In the protocol planned before, it was planned to follow the method used by Jiang et al. Mice had to receive two subcutaneous injections/day of heroin at increasing doses (3 to 30 mg/kg) for 9 consecutive days and a single injection on the 10th day. […] It is likely that the discrepancy of toxicity between our experiments and the study of Jiang et al. partly resulted from difference in purity of heroin. Therefore, it was necessary to develop a method allowing to observe clear withdrawal symptoms and an acceptable mortality rate. This method is presented below. For information, 178 rats, including those used for the development of the method, have been used for this study of which 54 have been included in the results presented here.

Sprague-Dawley rats = assay: Naloxone precipitated withdrawal syndrome of heroin; assay type: in vivo
Procedure: The abrupt cessation of chronic opiate use results in a well characterized withdrawal syndrome with symptoms that include pain sensitivity, dysphoria, irritability, restlessness, insomnia, diarrhea and hyperventilation. In the present model, the naloxone-precipitated withdrawal syndrome is measured in rodents. Animals are chronically treated with a drug, e.g. morphine or heroin. Opiate withdrawal syndrome is elicited by an acute injection of the opiate antagonist Naloxone.
The effect of mazindol on heroin withdrawal syndrome elicited by naloxone was examined in Sprague-Dawley rats using a method similar to the one used by Jiang et al. (10),
Animals were subdivided into two groups. One group received heroin two i.p. injections/day for 12 consecutive days and a single injection on the 13th day (total: 25 injections) as exposed in Table 3 group received saline instead of heroin following the same protocol.
On day 13, animals received treatments and were tested according to the following time schedule: • T=0: i.p. injection of heroin (15 mg/kg) or vehicle. • T=2.5 h: animals individually placed in a transparent Plexiglas observation boxes (40×40×40 cm). • T=3.5 h: i.p. injection of treatment (see below). • T=4 h: i.p. injection of naloxone (5 mg/kg), start of test: observation of withdrawal symptoms as indicated in Table 4. • T=5 h: end of test, animals placed back into their home cages.
Animals received the following treatments at T 3.5 h (i.e. 30 min before injection of naloxone and observation of symptoms): • 1) Animals treated with saline during the intoxication period (days 1-12) and at T0 on day 13: • Saline group (N=8): saline (0.9% NaCl). • 2) Animals treated with […] during the intoxication period (days 1-12) and at T0 on day 13: • Hero group (N=14): saline (0.9% NaCl). • Amph 1 group (N=4): D-amphetamine (1 mg/kg). • Maz 0.125 group (N=5): mazindol (0.125 mg/kg). • Maz 0.25 group (N=6): mazindol (0.25 mg/kg). • Maz 0.5 group (N=6): mazindol (0.5 mg/kg). • Maz 1 group (N=6): mazindol (1 mg/kg). • Maz 2 group (N=5): mazindol (2 mg/kg).
A weighting factor was ascribed for each sign from which a score was calculated.
Examples: • Body weight before naloxone injection=241 g; after naloxone injection=236 g: • Weight loss score=2=100×(241−236)/241 • Number of escape attempts=8: • Score for escape attempts=2 • Profuse salivation present: • Score for profuse salivation
A global withdrawal score was then calculated: • Global score=the sum of the scores

5-HT transporter(h) = target: T1, 5-HT transporter(h) (Homo sapiens, UniProt P31645); assay: Radioligand binding, 5-HT transporter (Eurofins CEREP); conditions: 1.0 × 10^−05 M; antagonist radioligand
T1 construct: Eurofins CEREP
T1 sequence (P31645 whole entry): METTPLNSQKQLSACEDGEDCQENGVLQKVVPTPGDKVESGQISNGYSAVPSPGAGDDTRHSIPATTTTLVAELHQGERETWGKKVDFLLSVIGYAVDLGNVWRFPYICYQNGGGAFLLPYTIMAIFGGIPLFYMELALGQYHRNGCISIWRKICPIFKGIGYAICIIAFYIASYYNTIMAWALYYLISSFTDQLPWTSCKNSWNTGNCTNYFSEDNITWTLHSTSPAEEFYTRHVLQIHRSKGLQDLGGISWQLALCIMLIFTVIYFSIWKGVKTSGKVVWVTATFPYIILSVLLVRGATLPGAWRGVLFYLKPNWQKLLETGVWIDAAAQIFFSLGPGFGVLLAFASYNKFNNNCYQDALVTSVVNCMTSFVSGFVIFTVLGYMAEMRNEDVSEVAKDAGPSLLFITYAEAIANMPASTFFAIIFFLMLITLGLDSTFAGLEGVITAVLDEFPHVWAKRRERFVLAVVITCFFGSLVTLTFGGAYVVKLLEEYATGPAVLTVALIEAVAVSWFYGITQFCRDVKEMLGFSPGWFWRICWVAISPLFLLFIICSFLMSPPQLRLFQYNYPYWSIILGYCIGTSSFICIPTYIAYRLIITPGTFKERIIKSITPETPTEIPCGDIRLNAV
Text: (§1) Table A discloses mazindol and Met tested at […] and the compound binding calculated as a percent inhibition of the binding of a radioactively labeled ligand specific for each target (Eurofins CEREP, France).
(§2) An inhibition or stimulation of more than 50% is considered a significant effect of the test compounds. Fifty percent is a common cut-off for further investigation (i.e. determination of IC50 or EC50 values from concentration-response curves).
(§3) The results are expressed as a percent of control specific binding obtained in the presence of the test compounds:
(§4) [formula] and as a percent inhibition of control specific binding obtained in the presence of the test compounds: […]

k (KOP) = target: T2, k (KOP) (Rattus norvegicus, UniProt P34975); assay: Radioligand binding, κ opioid receptor (Eurofins CEREP)
T2 construct: Eurofins CEREP
T2 sequence (P34975 whole entry): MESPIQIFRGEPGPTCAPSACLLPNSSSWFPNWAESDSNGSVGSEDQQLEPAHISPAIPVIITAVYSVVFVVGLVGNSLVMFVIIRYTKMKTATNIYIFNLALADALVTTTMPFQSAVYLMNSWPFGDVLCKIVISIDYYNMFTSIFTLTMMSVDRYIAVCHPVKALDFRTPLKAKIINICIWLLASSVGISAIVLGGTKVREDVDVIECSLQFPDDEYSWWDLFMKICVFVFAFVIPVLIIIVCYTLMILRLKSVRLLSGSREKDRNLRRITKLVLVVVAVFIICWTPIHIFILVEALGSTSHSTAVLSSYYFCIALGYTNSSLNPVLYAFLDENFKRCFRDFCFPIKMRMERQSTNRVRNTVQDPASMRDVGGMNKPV
Text: as §1
(§5) An inhibition or stimulation of more than 50% is considered a significant effect of the test compounds. Fifty percent is a common cut-off for further investigation (i.e. determination of IC50 or EC50 values from concentration-response curves). Tables B and C display the binding profiles for Mazindol and Met.
as §3, §4

H1(h) = target: T3, H1(h) (Homo sapiens, UniProt P35367); assay: Radioligand binding, H1 (Eurofins CEREP); conditions: 1.0 × 10^−05 M; antagonist radioligand
T3 construct: Eurofins CEREP
T3 sequence (P35367 whole entry): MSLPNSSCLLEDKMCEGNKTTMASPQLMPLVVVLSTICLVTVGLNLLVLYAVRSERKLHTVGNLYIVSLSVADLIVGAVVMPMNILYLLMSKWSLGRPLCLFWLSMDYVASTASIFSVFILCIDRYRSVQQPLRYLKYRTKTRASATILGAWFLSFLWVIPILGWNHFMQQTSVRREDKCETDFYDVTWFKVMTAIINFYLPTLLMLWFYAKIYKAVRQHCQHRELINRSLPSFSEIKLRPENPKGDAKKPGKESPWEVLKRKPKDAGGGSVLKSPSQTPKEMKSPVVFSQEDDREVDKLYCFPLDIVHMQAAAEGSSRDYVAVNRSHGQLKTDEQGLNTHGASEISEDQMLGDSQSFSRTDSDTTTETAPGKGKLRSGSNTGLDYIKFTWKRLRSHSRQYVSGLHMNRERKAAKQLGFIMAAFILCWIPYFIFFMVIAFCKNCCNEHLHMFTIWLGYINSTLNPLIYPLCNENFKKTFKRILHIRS
Text: as §1, §5, §3, §4

μ (MOP) (h) = target: T4, μ (MOP) (h) (Homo sapiens, UniProt P35372); assay: Radioligand binding, μ opioid receptor (Eurofins CEREP)
T4 construct: Eurofins CEREP
T4 sequence (P35372 whole entry): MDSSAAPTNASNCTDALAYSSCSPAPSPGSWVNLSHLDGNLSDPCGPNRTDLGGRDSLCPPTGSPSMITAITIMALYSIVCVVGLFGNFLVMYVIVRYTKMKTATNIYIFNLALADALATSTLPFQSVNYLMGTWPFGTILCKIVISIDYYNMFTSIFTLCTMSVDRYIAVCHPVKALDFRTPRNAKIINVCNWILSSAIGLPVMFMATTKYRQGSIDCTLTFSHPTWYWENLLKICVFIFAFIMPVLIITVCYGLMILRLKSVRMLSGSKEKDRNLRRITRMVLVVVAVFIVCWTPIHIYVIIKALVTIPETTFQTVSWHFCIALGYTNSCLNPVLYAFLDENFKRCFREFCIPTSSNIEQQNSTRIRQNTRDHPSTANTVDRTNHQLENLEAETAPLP
Text: as §1, §5, §3, §4

Dopamine transporter(h) = target: T5, Dopamine transporter(h) (Homo sapiens, UniProt Q01959); assay: Radioligand binding, dopamine transporter (Eurofins CEREP); conditions: 1.0 × 10^−05 M; antagonist radioligand
T5 construct: Eurofins CEREP
T5 sequence (Q01959 whole entry): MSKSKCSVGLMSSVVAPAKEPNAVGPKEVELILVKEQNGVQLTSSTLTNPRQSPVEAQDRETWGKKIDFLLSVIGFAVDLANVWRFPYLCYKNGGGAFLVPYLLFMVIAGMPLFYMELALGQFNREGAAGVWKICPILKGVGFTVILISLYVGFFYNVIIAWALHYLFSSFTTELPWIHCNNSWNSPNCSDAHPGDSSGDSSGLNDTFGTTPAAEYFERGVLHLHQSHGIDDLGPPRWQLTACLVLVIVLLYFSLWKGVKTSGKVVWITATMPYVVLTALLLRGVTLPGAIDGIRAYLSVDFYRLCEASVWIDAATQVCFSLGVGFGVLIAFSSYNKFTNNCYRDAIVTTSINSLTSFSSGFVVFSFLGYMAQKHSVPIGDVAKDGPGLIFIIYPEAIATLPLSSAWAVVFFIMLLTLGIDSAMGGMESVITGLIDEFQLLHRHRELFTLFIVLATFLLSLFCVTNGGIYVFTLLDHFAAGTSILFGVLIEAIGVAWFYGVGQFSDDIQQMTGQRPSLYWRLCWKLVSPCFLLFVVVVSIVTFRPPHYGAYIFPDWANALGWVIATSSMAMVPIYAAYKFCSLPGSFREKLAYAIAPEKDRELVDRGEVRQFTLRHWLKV
Text: as §1, §2, §3, §4

M1(h) = target: T6, M1(h) (Homo sapiens, UniProt P11229); assay: Radioligand binding, M1 (Eurofins CEREP); conditions: 1.0 × 10^−05 M; antagonist radioligand
T6 construct: Eurofins CEREP
T6 sequence (P11229 1-460): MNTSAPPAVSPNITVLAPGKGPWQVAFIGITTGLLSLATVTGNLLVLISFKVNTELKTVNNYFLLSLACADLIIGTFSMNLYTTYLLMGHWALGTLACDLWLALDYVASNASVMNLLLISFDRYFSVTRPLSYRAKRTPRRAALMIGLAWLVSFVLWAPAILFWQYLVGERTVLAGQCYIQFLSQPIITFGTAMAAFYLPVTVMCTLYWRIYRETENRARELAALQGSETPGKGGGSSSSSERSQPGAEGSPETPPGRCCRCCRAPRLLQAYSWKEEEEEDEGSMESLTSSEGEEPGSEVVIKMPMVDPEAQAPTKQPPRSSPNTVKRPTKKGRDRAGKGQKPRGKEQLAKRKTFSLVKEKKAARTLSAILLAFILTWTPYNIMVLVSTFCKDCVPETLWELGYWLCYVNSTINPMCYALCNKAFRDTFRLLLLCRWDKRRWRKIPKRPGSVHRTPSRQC
Text: as §1, §5, §3, §4

5-HT1A(h) = target: T7, 5-HT1A(h) (Homo sapiens, UniProt P08908); assay: Radioligand binding, 5-HT1A (Eurofins CEREP); conditions: 1.0 × 10^−05 M; agonist radioligand
T7 construct: Eurofins CEREP
T7 sequence (P08908 1-422): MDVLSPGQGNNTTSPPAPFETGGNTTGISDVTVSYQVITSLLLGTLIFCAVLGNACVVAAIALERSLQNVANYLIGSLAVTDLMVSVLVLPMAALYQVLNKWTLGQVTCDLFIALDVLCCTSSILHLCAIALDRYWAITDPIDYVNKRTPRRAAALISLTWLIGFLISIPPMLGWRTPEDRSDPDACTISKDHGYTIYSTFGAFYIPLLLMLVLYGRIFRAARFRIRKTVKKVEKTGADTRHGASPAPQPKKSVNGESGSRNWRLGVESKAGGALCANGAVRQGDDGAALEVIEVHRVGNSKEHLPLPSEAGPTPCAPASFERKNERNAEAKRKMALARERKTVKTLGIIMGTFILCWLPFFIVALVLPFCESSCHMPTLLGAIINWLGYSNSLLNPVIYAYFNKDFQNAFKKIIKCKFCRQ
Text: as §1, §2, §3, §4

[2] = target: T8, Norepinephrine transporter (h) (Homo sapiens, UniProt P23975); assay: Radioligand binding, norepinephrine transporter (Eurofins CEREP); conditions: 1.0 × 10^−05 M; antagonist radioligand
T8 construct: Eurofins CEREP
T8 sequence (P23975 whole entry): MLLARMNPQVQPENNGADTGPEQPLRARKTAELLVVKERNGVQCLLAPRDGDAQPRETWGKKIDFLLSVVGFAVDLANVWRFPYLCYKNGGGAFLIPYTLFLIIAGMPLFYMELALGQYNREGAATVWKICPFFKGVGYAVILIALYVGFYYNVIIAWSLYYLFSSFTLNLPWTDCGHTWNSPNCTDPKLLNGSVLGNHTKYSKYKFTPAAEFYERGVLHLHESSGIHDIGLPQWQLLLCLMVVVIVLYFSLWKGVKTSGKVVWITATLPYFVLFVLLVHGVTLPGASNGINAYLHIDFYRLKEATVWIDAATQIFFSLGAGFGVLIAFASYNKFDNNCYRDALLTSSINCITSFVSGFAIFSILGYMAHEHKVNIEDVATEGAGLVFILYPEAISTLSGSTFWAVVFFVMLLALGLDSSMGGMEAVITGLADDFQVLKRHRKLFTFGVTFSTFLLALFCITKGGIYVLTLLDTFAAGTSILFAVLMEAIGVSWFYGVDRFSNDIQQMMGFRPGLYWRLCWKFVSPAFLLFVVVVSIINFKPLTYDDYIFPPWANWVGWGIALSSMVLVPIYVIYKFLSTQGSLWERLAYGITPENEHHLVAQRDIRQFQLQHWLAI
Text: as §1, §5, §3, §4

[3] = Hero group N = 12 (Table 6): heroin 1.25 mg/kg i.p. before drug sessions
[4] = Hero group N = 24 (Table 5): heroin 1.25 mg/kg i.p. before drug sessions
[5] = Hero n = 14: heroin i.p. days 1-13 (2-15 mg/kg), saline 30 min before naloxone 5 mg/kg, mean
[6] = heroin-treated vs. saline rats, naloxone 5 mg/kg
[7] = 1.0 × 10^−05 M, agonist radioligand

## CC(=O)Oc1ccc2c3c1O[C@H]1[C@@H](OC(C)=O)C=C[C@H]4[C@@H](C2)N(C)CC[C@@]341 [Heroin]
C57BL/6J mice; [3]
  Distance travelled in the drug-paired compartment: 7919.1 cm
  Distance travelled in the two compartments (Drug + Vehicle): 13647.5 cm
  Distance travelled in the vehicle-paired compartment: 5728.4 cm
  Distance travelled, drug-paired minus vehicle-paired compartment: 2190.6 cm
  Time spent in the drug-paired compartment: 1063.0 s
  Time spent in the vehicle-paired compartment: 737.0 s
  Time spent, drug-paired minus vehicle-paired compartment: 325.9 s
C57BL/6J mice; [4]
  Distance travelled in the drug-paired compartment: 7943.6 cm
  Distance travelled in the two compartments (Drug + Vehicle): 13892.0 cm
  Distance travelled in the vehicle-paired compartment: 5948.4 cm
  Distance travelled, drug-paired minus vehicle-paired compartment: 1995.3 cm
  Time spent in the drug-paired compartment: 1023.7 s
  Time spent in the vehicle-paired compartment: 776.3 s
  Time spent, drug-paired minus vehicle-paired compartment: 247.4 s
C57BL/6J mice; heroin 1.25 mg/kg before drug sessions
  place preference induced by the drug: induced a place preference
C57BL/6J mice; heroin 1.25 mg/kg before drug sessions, preference session
  total distance travelled in two compartments (FIG. 3): No significant modification
C57BL/6J mice; heroin 1.25, 2.5 and 5 mg/kg
  CPP induced by heroin (second experiment): induced CPP at the three doses tested
[1]
  mortality: substantial mortality
Sprague-Dawley rats; [5]
  Abdominal constrictions score (Abd C): 4.1
  Abnormal posture score (Ab P): 0.2
  Chromodacryorrhea score (Chr): 1.1
  Diarrhea score (Diarr): 2.0
  Erection or ejaculation score (Er Ej): 0.0
  Escape attempts score (Esc A): 1.1
  Facial fasciculation or teeth chattering score (F F T C): 2.0
  Global Score: 22.4
  Irritability score (Irrit): 0.0
  Profuse salivation score (Pr Sal): 5.5
  Ptosis score (Ptos): 0.1
  Swallowing movements score (Sw M): 0.9
  Weight loss score (W Los): 1.9
  Wet dog shakes score (W D S): 3.4
Sprague-Dawley rats; [6]
  global score and scores for weight loss, escape attempts, wet dog shake, diarrhea, facial fasciculation or teeth chattering and profuse salivation: induced an increase
  scores for abdominal constrictions and chromodacryorrhea: non-significantly increased

## NCCN1C(=O)c2ccccc2C1(O)c1ccc(Cl)cc1 (centres unmarked) [Mazindol Metabolite, 2-(2-Aminoethyl)-3-(p-chlorophenyl)-3-hydroxyphthalimidine]
5-HT transporter(h)
  percent inhibition of the binding of a radioactively labeled ligand: 98.5%
K (KOP)
  affinity for κ-opioid receptors: modest affinity
K (KOP); [7]
  percent inhibition of the binding of a radioactively labeled ligand: 53.3%
H1(h)
  percent inhibition of the binding of a radioactively labeled ligand: 75.5%
μ (MOP) (h); [7]
  percent inhibition of the binding of a radioactively labeled ligand: 87.9%
μ (MOP) (h); compared with amphetamines
  affinity for μ-opioid receptors: higher affinity
Dopamine transporter(h)
  percent inhibition of the binding of a radioactively labeled ligand: 101%
M1(h)
  percent inhibition of the binding of a radioactively labeled ligand: 50.4%
5-HT1A(h)
  percent inhibition of the binding of a radioactively labeled ligand: 86.3%
[2]
  percent inhibition of the binding of a radioactively labeled ligand: 100.2%
